pIC50: −log10 of the molar value.
Assays:
[1] = biological target: T1, Serine/threonine-protein kinase Sgk1 (Homo sapiens) (UniProt O00141); assay: Inhibition of Serum/glucocorticoid regulated kinase; design: scale not given: the % may be the effect or the level left
T1 sequence (whole entry): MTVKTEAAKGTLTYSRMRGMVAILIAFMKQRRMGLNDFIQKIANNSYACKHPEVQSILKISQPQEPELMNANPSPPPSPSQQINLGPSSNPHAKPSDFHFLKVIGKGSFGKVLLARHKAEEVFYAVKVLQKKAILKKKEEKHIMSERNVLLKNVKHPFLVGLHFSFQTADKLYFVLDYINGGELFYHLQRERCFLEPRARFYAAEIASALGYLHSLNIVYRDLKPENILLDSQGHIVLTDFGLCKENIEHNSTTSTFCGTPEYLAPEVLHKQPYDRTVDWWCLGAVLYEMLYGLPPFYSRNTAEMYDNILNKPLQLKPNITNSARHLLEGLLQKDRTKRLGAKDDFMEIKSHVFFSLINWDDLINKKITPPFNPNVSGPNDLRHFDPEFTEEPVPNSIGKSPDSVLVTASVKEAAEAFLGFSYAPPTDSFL

[2] = biological target: Ribosomal protein S6 kinase alpha-2 (Homo sapiens) (UniProt Q15349); assay: Inhibition of Ribosomal S6 kinase 2; design: scale not given: the % may be the effect or the level left
Chain of Ribosomal protein S6 kinase alpha-2 (Homo sapiens) (Q15349 whole entry): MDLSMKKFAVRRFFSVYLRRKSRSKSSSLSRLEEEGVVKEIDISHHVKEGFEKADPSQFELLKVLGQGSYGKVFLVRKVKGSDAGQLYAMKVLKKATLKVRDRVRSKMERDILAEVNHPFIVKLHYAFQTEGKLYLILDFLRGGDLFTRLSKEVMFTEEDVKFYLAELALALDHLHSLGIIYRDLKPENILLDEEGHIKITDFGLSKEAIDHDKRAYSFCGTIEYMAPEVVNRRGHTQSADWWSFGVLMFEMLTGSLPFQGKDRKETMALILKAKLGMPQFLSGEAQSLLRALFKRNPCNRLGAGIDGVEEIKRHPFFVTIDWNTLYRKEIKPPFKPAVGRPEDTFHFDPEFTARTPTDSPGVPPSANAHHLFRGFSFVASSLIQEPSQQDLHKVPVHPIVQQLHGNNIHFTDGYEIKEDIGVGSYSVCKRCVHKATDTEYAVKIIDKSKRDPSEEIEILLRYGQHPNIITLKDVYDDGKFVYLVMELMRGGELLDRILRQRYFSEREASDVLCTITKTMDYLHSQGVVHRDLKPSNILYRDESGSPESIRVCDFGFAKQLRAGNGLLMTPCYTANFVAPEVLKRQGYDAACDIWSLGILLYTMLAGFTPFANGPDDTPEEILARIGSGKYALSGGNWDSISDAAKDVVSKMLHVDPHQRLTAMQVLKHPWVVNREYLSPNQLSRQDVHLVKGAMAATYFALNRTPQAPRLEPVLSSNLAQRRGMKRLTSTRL

[3] = biological target: Protein kinase C alpha type (Homo sapiens, UniProt P17252); assay: Inhibition of PKCalpha; design: scale not given: the % may be the effect or the level left
[4] = biological target: Cyclin-dependent kinase 7/ cyclin H (Homo sapiens) (UniProt P51946+P50613); assay: Inhibition of Cyclin-dependent kinase 7-cyclin H; assay type: protein-complex assay; design: scale not given: the % may be the effect or the level left
[5] = biological target: Tyrosine-protein kinase Yes (Homo sapiens) (UniProt P07947); assay: Inhibition of Yes tyrosine kinase; design: scale not given: the % may be the effect or the level left
Chain of Tyrosine-protein kinase Yes (Homo sapiens) (P07947 2-543 limits assumed): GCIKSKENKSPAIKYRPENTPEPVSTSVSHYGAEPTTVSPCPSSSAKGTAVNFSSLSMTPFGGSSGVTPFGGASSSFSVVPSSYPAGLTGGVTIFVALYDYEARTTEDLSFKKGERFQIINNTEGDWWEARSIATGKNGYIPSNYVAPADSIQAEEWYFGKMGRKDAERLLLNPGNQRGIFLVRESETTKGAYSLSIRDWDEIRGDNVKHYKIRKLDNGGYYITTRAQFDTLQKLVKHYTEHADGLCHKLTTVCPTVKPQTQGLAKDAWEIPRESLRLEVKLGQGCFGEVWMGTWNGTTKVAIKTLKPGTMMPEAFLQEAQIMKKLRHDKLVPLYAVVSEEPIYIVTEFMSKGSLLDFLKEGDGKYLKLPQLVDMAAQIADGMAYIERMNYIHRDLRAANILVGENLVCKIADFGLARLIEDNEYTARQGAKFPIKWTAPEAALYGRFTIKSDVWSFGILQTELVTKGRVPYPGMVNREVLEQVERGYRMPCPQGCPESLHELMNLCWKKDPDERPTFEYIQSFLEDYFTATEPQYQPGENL

[6] = biological target: T2, Tyrosine-protein kinase ZAP-70 (Homo sapiens) (UniProt P43403); assay: Inhibition of Zeta-chain (TCR) associated protein kinase 70 kDa (ZAP70); design: scale not given: the % may be the effect or the level left
T2 sequence (whole entry): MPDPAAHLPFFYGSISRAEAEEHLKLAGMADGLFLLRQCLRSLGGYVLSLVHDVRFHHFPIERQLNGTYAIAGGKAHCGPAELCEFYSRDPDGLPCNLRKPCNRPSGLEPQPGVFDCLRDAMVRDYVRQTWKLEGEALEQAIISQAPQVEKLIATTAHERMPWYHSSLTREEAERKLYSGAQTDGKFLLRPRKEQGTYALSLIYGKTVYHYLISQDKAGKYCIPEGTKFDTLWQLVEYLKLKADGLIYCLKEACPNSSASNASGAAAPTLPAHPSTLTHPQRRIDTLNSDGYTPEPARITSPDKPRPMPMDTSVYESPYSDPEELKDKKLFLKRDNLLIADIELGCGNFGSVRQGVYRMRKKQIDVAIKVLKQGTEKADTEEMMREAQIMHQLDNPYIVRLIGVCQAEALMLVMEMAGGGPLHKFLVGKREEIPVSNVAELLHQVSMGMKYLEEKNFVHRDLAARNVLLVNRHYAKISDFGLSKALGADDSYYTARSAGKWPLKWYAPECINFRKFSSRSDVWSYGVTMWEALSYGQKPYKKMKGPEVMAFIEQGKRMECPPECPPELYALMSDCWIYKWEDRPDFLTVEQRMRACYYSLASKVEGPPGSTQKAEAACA

[7] = biological target: Insulin receptor (Homo sapiens) (UniProt P06213); assay: Inhibition of IR kinase; design: scale not given: the % may be the effect or the level left
[8] = biological target: Cyclin-dependent kinase 2/cyclin A (Homo sapiens, UniProt P24941); assay: Inhibition of Cyclin-dependent kinase 2-cyclin A; assay type: protein-complex assay
[9] = biological target: T3, Dual specificity mitogen-activated protein kinase kinase 6 (Homo sapiens) (UniProt P52564); assay: Inhibition of Mitogen activated protein kinase kinase 6; design: scale not given: the % may be the effect or the level left
T3 sequence (whole entry): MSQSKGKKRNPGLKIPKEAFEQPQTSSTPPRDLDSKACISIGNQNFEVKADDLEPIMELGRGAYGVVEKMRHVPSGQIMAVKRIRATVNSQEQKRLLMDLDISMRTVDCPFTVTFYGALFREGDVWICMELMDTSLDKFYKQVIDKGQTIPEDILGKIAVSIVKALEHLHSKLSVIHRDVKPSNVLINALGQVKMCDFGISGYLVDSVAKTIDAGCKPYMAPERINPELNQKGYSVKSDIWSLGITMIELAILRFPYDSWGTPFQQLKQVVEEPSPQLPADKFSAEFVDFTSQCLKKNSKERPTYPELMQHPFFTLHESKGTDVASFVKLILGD

[10] = biological target: Insulin-like growth factor 1 receptor (Homo sapiens) (UniProt P08069); assay: Inhibition of insulin-like growth factor I receptor; design: scale not given: the % may be the effect or the level left
[11] = biological target: Serine/threonine-protein kinase N2 (Homo sapiens) (UniProt Q16513); assay: Inhibition of compound PRK2; design: scale not given: the % may be the effect or the level left
Chain of Serine/threonine-protein kinase N2 (Homo sapiens) (Q16513 whole entry, looked up): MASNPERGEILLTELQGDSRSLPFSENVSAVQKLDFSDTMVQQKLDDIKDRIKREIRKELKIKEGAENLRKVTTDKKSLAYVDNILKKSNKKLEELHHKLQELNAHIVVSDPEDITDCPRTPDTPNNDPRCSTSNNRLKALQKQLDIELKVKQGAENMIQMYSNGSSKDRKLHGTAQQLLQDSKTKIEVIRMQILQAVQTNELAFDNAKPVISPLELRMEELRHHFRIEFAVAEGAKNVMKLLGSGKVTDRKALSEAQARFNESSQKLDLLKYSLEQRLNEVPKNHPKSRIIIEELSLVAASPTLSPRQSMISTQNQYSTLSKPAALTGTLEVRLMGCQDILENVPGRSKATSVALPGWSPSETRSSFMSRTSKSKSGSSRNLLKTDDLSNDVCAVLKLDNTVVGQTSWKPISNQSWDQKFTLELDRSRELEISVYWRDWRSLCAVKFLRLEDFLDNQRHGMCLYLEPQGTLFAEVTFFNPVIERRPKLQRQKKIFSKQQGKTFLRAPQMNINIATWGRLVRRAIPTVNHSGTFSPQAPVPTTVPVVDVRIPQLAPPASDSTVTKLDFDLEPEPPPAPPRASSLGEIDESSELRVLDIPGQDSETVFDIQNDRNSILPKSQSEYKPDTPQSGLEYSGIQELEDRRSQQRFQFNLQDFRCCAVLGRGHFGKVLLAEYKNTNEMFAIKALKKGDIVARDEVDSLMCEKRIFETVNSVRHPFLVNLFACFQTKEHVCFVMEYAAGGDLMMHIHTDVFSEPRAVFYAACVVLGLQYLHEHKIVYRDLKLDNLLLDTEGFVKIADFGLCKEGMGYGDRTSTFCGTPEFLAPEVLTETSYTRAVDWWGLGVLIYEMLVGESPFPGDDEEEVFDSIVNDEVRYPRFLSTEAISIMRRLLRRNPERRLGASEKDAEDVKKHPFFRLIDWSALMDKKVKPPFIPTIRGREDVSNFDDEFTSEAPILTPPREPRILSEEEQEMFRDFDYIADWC

[12] = biological target: Proto-oncogene tyrosine-protein kinase Src (Homo sapiens) (UniProt P12931); assay: Inhibition of c-Src tyrosine kinase; design: scale not given: the % may be the effect or the level left
[13] = biological target: Ribosomal protein S6 kinase alpha-1 (Rattus norvegicus) (UniProt Q63531); assay: Inhibition of Ribosomal S6 kinase 1; design: scale not given: the % may be the effect or the level left
Chain of Ribosomal protein S6 kinase alpha-1 (Rattus norvegicus) (Q63531 whole entry): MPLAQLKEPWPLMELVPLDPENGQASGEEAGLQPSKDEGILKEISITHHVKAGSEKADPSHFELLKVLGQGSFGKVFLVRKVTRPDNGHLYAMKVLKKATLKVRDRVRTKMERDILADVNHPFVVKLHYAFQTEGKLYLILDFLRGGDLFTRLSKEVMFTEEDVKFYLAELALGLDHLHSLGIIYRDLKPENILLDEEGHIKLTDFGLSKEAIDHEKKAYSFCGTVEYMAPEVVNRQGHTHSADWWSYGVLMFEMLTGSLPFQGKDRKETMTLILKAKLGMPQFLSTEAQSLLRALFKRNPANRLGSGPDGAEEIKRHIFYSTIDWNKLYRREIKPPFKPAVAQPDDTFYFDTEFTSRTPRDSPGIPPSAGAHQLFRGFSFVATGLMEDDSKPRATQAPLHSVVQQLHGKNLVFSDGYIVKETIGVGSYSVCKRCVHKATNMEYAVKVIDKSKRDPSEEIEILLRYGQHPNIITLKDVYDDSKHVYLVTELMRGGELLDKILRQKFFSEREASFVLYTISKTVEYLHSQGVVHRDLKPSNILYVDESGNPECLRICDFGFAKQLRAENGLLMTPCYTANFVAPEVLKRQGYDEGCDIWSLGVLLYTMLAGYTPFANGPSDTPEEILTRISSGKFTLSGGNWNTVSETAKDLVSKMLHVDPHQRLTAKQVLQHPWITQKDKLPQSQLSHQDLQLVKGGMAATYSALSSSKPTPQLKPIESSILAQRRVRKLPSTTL

[14] = biological target: Tyrosine-protein kinase Lyn (Mus musculus) (UniProt P25911); assay: Inhibition of Protein tyrosine kinase Lyn; design: scale not given: the % may be the effect or the level left
Chain of Tyrosine-protein kinase Lyn (Mus musculus) (P25911 whole entry): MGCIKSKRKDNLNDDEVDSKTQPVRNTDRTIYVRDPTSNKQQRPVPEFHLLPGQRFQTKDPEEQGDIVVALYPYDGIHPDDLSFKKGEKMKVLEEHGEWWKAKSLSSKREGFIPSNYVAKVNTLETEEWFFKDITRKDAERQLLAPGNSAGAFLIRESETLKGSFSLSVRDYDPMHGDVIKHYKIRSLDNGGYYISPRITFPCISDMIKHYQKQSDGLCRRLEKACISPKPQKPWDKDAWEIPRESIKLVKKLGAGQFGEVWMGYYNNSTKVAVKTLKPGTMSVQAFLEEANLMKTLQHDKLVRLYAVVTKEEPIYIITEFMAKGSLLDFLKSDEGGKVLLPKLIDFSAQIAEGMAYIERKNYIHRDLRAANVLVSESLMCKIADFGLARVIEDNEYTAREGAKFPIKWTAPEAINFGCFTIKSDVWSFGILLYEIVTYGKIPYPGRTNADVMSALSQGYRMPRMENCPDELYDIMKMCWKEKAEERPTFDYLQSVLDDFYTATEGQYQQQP

[15] = biological target: T4, Protein kinase C epsilon type (Homo sapiens) (UniProt Q02156); assay: Inhibition of PKCepsilon; design: scale not given: the % may be the effect or the level left
T4 sequence (whole entry): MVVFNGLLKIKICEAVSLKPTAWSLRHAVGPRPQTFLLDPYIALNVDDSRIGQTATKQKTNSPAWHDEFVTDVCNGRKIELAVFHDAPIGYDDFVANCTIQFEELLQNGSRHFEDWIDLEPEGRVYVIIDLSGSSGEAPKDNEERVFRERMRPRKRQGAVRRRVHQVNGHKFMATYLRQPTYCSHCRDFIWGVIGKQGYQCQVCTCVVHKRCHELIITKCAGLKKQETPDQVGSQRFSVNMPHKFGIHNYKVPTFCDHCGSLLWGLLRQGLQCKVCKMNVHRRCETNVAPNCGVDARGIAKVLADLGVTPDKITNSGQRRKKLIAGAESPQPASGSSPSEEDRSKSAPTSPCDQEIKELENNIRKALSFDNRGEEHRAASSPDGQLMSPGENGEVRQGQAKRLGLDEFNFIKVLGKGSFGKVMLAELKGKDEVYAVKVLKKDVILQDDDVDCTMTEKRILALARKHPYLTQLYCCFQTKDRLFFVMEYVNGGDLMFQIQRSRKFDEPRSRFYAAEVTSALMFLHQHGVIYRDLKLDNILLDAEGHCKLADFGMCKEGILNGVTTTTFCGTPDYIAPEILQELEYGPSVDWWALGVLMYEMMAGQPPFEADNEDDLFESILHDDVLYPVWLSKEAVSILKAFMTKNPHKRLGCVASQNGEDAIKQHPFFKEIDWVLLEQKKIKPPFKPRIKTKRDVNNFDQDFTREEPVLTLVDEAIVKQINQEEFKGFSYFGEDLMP

[16] = biological target: Tyrosine-protein kinase Blk (Mus musculus) (UniProt P16277); assay: Inhibition of B lymphoid tyrosine kinase; design: scale not given: the % may be the effect or the level left
Chain of Tyrosine-protein kinase Blk (Mus musculus) (P16277 whole entry): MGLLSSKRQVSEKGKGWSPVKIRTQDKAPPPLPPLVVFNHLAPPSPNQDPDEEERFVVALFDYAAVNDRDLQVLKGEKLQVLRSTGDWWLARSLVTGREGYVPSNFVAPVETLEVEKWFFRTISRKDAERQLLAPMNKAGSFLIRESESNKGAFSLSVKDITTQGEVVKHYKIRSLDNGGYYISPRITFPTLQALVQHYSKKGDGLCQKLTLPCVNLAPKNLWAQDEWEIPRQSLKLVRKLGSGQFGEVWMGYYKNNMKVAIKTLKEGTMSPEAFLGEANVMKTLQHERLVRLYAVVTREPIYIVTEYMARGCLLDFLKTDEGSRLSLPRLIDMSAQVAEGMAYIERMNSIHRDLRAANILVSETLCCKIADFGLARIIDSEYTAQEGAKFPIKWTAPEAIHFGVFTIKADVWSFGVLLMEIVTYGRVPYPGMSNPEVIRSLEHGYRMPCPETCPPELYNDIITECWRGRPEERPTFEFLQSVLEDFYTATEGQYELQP

Row | Activity [1] [%] | Activity [2] [%] | Activity [3] [%] | Activity [4] [%] | Activity [5] [%] | Activity [6] [%] | Activity [7] [%] | pIC50 [8] | Activity [9] [%] | Activity [10] [%] | Activity [11] [%] | Activity [12] [%] | Activity [13] [%] | Activity [14] [%] | Activity [15] [%] | Activity [16] [%] | Compound
1 | 98 | 54 | 46 | 47 | 89 | 100 | 88 | 6.37 | 83 | 80 | 76 | 99 | 48 | 81 | 49 | 75 | COCCCn1cc(C2=C(c3ccccc3O)C(=O)NC2=O)c2cccnc21
2 | 105 | 31 | 38 | 60 | 42 | 112 | 94 | 7.17 | 95 | 86 | 68 | 74 | 38 | 20 | 54 | 63 | COc1ccccc1C1=C(c2cn(CCCNC(=O)OC(C)(C)C)c3ncccc23)C(=O)NC1=O
3 | 87 | 77 | 70 | 59 | 93 | 91 | 95 | 5.55 | 86 | 78 | 71 | 93 | 66 | 85 | 67 | 67 | O=C1NC(=O)C(c2cn(CCCO)c3ncccc23)=C1c1ncc(C(F)(F)F)cc1Cl
